{"source": "paper PMC12703741", "about": "“Light-Activated Metal-Dependent Protein Degradation: A Heterobifunctional Ruthenium(II) Photosensitizer Targeting New Delhi Metallo-β-lactamase 1” (Journal of the American Chemical Society, 2025)", "key": {"[1]": {"assay": "Luminescence lifetime of the excited state", "assay_type": "physicochemical", "conditions": "PBS", "excerpt": "1.2.6 Luminescence lifetime\nat room temperature with a Horiba Scientific FL-1065 (FluoroLog) using a pulse laser (486\nnm) as the excitation source.\nLifetime of excited state (ns)"}, "[2]": {"assay": "Photostability by UV-Vis in PBS", "assay_type": "physicochemical", "conditions": "10 μM, 450 nm", "procedure": "Both complexes were stable up to and including 23 J cm^–2 (Figure S5). The lifetime of the excited state is one of the key factors which affect ROS generation. […] To quantify the generation of ^1O2 produced by the complexes, 1,3-diphenylisobenzofuran (DPBF) was used as a ^1O2 scavenger. […]\nspectra of both compounds in PBS ( 10 μM) under light irradiation (450 nm, 23 J cm -2 over 240 […]\n1.2.4 Electron Paramagnetic Resonance (EPR)\nAll EPR measurements were performed using a Bruker Magnettech spectrometer (ESR5000), Bruker (Germany), at room temperature. EPR samples were transferred to a 20 μL BLAUBRAND micropipette and spectra were recorded at 9.47 GHz microwave frequency, 2 mW microwave power, 100 kHz modulation frequency and 0.1 mT modulation amplitude. The field was scanned from 331.3 mT to 343.3 mT and a single scan was acquired."}, "NDM-1 in E. coli NDM-1": {"biological_target": "NDM-1 in E. coli NDM-1 (Klebsiella pneumoniae, UniProt C7C422)", "sequence (C7C422 29-270 limits assumed)": "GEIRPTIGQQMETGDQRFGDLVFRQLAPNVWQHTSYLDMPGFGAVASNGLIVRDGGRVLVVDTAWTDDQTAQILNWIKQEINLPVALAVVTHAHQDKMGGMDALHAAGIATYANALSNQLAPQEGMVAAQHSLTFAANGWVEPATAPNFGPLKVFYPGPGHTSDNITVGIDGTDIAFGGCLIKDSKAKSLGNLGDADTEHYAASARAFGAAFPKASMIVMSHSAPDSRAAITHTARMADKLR", "conditions": "E. coli NDM-1, nitrocefin", "description": "shaking at 180 rpm for 18 hours. The overnight suspensions were subcultured (1:100) in fresh LB and incubated to yield an OD600 of 0.55-0.60. The were harvested and pelleted at 3500  g for 15 minutes at 4 °C. The pellets were washed with PBS and pelleted again under the same\nconditions. The bacteria were then stored as pellets at 4 C until required for the assay and to\nbe used within 5 hours. To prepare the bacteria fo r the assay, a pellet was resuspended in an\nadjusted volume of fresh PBS to achieve an OD600 ≈ 5.0 and then kept at 4 C for 1 hr before\nbeing used. The bacteria were then diluted to OD600 ≈ 2.0 in fresh PBS and used immediately.\ninhibitor control, and one row of Bacteria Buffer B (50 µL) which served as a no-bacteria\ncontrol (providing five rows in total). Bacteria stock (OD600 ≈ 2.0, 40 µL, final concentration\nof bacteria in well = OD600 ≈ 0.8) was added to each well of the first four rows, the plate was\nsealed, and the samples then pre-incubated for 60 min under either ‘dark’ or ‘light’ conditions\nUnder ‘dark’ conditions, the plate was left sealed in a\nsubstrate in well = 100 µM) was conducted manually and then the plate immediately resealed\nsubstrate had been completely consumed. Method conditions are as follows: cycle time = 100"}, "E. coli empty": {"tested_on": "E. coli empty", "conditions": "320 μM, 1 h", "procedure": "(§1) In parallel, a control set was incubated without compounds for 50 min, followed by incubation with 75 μM meropenem trihydrate for 10 min. Cells were then pelleted, washed, resuspended in water, lysed, and clarified before LC-MS analysis.\n(§2) 1.12 LC-MS accumulation assay\n(§3) 1.12.1 Bacterial Strains and Growth Conditions:\n(§4) Accumulation assay was performed two E. coli K-12 MG1655 strains transfected with pSU18 vector containing NDM-1 expression or an empty vector control. Cell growth was performed in Luria-Bertani (LB) broth (NaCl 10g/L, K2HPO4 6.3 g/L, KH2PO4 1.8 g/L, sodium citrate […]\n(§5) 1.12.2 Preparation of Accumulation Assay Samples for LC-MS Analysis:\n(§6) Assay was adapted from the work of Geddes et al. and Widya et al.9–11 E. coli MG1655 pSU18 NDM-1 and pSU18 Empty were grown from single colonies at 37 °C with aeration, while shaking at 180 rpm for 18 hours. The overnight suspensions were subcultured (1:100) in fresh LB and incubated to yield an OD600 of 0.55-0.60. The were harvested and pelleted at 3500 × g for 15 minutes at 4 °C. The pellets were washed with Meuller -Hinton II (MHII) broth and pelleted again under the same conditions. The pellets were resuspended in a n adjusted volume of fresh MHII to achieve an OD 600 ≈ 10.0. Shielded from ambient light, cells were incubated with 320 μM of metal complex for 1 hour while shaking at 180 rpm. Separately, another set of cells was incubated under identical conditions without any added metal complex. Cells […]\n(§7) incubated with metal complex were maintained incubating under the same conditions for an additional 10 minutes, while the second set of cells was incubated with 75 μM of meropenem trihydrate for 10 minutes. After treatment, 10 μL of each cell suspension was taken and dilution 1:10 PBSA for OD600 viability analysis. A 150 μL aliquot of each cell suspension was layered onto 150 μL of cold silicone oil mixture (1:9, v/v AR20:High temperature silicone oil) and centrifuged at 3500 × g for 1 hour at 4 °C. The aqu eous and oil supernatant were carefully aspirated to isolate the cell pellets, which were resuspended in 50 μL of water and transferred to a fresh microplate. For lysis, a 1:1 (v/v) mixture of acetonitrile and methanol was added to each sample, and the sam ples were freeze thawed at -80 °C for approximately 18 hours.\n(§8) Thawed samples were clarified by two rounds of centrifugation at 3500 × g for 1 hour at 4 °C, […]\n(§9) External calibration curves were prepared by mixing compound at increasing concentration with extracted cell lysate (prepared in parallel to analyte containing samples) in concentrations […]\n(§10) nM were also prepared to assess quantitative accuracy. Samples were submitted to LCMS analysis as biological triplicate using a single calibration curve. […]\n(§11) was spiked into each calibration and analyte sampl e as an internal standard."}, "E. coli NDM-1": {"tested_on": "E. coli NDM-1", "conditions": "320 μM, 1 h", "procedure": "as §1, §2, §3, §4, §5, §6, §7, §8, §9, §10, §11"}, "NDM-1 [3]": {"biological_target": "T1, NDM-1 (Klebsiella pneumoniae, UniProt C7C422)", "T1 sequence (C7C422 31-270 limits assumed)": "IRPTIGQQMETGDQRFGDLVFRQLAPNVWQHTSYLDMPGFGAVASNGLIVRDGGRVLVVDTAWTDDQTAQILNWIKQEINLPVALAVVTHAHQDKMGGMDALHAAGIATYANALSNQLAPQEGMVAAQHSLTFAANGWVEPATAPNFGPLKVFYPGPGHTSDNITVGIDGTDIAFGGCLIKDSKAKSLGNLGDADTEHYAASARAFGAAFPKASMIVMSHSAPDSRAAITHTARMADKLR"}, "NDM-1 [4]": {"biological_target": "T1, NDM-1", "assay_type": "biochemical", "conditions": "mixture of NDM-1 and BSA, 0-1000 μM, light 450 nm, 20 J cm^-2", "procedure": "1.8 Protein degradation via SDS-PAGE […]\nwere made at 10 mM in DMSO and then diluted to the appropriate concentration (1 mM – 10 µM) in 50 mM HEPES pH 7.5. The enzyme stocks (10 µM) were made up in 50 mM HEPES pH 7.5. The compound and enzyme stocks were mixed 1:1 and then pre -incubated for 10 min […]\n‘light’ conditions the samples were transferred to a 96 well plate to provide irradiation. For a […]\n(208 s, 96 mW cm-2). For a dose of 60 J cm-2 the plate was irradiated immediately (624 s, 96 […]\nAn aliquot of each sample was mixed with SDS-sample buffer (NuPAGE® LDS Sample buffer 4x) and heated to 95°C for 3 min. The samples were loaded on to the gel (NuPAGE® 4-12% Bis-tris gel) and run at 200V/125 mA for 30 min (1 gel per Gel box) or 60 min (2 gels per Gel box). SDS-PAGE gels were imaged using a Cytiva Amersham ImageQuant™ 800.\nDensitometry of gel bands was measured and processed using Fiji (ImageJ).\n1.8.3 BSA+NDM-1 selectivity experiment […]\nnm, 20 J cm-2). Lane 1: Ladder; Lane 2: NDM-1 – no compound control (dark); Lane 3: BSA – no compound control (dark); Lane 4: NDM-1 + BSA - no compound control (dark); Lane 5: NDM-1 + BSA + 1 eq. compound (dark); Lane 6: NDM-1 + BSA + 10 eq. compound (dark); Lane 7: NDM-1 + BSA + 100 eq. compound (dark); Lane 8: NDM-1 + BSA - no compound control (light); Lane 9: NDM-1 + BSA + 1 eq. compound (light); Lane 10: NDM-1 + BSA + 10 eq. compound (light); Lane 11: NDM-1 + BSA + 100 eq. compound (light). […]\nthe dark (left) and under light irradiation (450 nm, 20 J cm-2)."}}, "note": "Like-named read-outs stand apart in the source and are kept apart here.", "data": [{"compound": "F[P-](F)(F)(F)(F)F.F[P-](F)(F)(F)(F)F.[Ru+2].c1ccc(-c2ccccn2)nc1.c1ccc(-c2ccccn2)nc1.c1ccc(-n2cnc3c4cccnc4c4ncccc4c32)cc1", "note": "[Ru2, [Ru(2,2'-bipyridine)2(1-phenyl-imidazo[4,5,f][1,10]phenanthroline)](PF6)2]", "values": [{"measurement": "LD50", "setting": "hTERT RPE-1; RPE1, 24 h", "value": "> 50", "unit": "µM"}, {"measurement": "LD50", "setting": "hTERT RPE-1; RPE1, 48 h", "value": "> 50", "unit": "µM"}, {"measurement": "LD50", "setting": "HepG2; HepG2, 24 h", "value": "> 50", "unit": "µM"}, {"measurement": "LD50", "setting": "HepG2; HepG2, 48 h", "value": "> 50", "unit": "µM"}, {"measurement": "Luminescence lifetime of excited state", "setting": "[1]", "value": 463, "unit": "ns"}, {"measurement": "Light dose up to which complex is stable", "setting": "[2]", "value": "≥ 23", "unit": "J cm^–2"}, {"measurement": "IC50(dark)", "setting": "NDM-1 in E. coli NDM-1; dark", "value": "no inhibition"}, {"measurement": "IC50(light)", "setting": "NDM-1 in E. coli NDM-1; light 450 nm, 60 J cm^-2", "value": "no inhibition"}, {"measurement": "Accumulation", "setting": "E. coli empty", "value": 405, "unit": "nM/OD600"}, {"measurement": "Accumulation", "setting": "E. coli NDM-1", "value": 494, "unit": "nM/OD600"}, {"measurement": "Fold difference in IC50(light) between Ru1 and untargeted control Ru2", "setting": "NDM-1 [3]; 450 nm, 20 J cm^-2", "value": "approximately 25 fold"}, {"measurement": "IC50", "setting": "NDM-1 [3]; read-out: IC50(light), recombinant NDM-1, nitrocefin, light 450 nm, 20 J cm^-2", "value": "5.6 ± 0.5", "unit": "µM"}, {"measurement": "IC50(dark)", "setting": "NDM-1 [3]; recombinant NDM-1, nitrocefin, dark", "value": "no inhibition"}, {"measurement": "LD50", "setting": "HEK293T; 24 h", "value": "> 50", "unit": "µM"}, {"measurement": "LD50", "setting": "HEK293T; 48 h", "value": "> 50", "unit": "µM"}, {"measurement": "Degradation of NDM-1 vs BSA (band intensity)", "setting": "NDM-1 [4]", "value": "both NDM-1 and BSA band intensities were diminished"}]}]}
